The conditions of data set [1]: cited from earlier work.
The conditions of data set [2]: at 45°C; cited from earlier work.
Data set [3] can be described thus: Determination of log D, aqueous phase pH 7.4. It is filed as physicochemical. The following applies: octanol / physiological buffer (aqueous phase at pH 7.4), experimental. The text has this:
Log D, the logarithm of distribution constant or apparent partition, therefore, is a better descriptor of the lipophilicity of an ionizable compound that is likely to be charged at the physiological pH [26]. This can be determined in a similar manner to log P, but the aqueous phase, instead of being pure water, is adjusted to pH 7.4 using a physiological buffer:Equation 2 [drawing 3]

In the next data set the test system is P-gp. The following applies: cited from earlier work.
A further data set addresses T1, MDR1 transporters (Homo sapiens, UniProt P08183).
T1 construct: overexpressed MDR1, MRP1 and BCRP membrane pumps on Caco-2 cells; endogenous in cells; host or cells: Caco-2 cells
The data set can be described thus: P-gp efflux assay (multidrug resistance direct dye efflux kit), Rhodamine-123 dye. It is filed as cell-based. The following applies: experimental, Caco-2 cells. Here is the method:
Furthermore, the multidrug resistance directs dye efflux assay kit (Chemicon® International, CA, USA and Serologicals® Corporations, GA, USA) was employed, in which the Caco-2 cells were loaded with rhodamine 123 (Rh-123) and diethyloxacarbocyanine (DiOC2) dyes in the presence or absence of vinblastine. In order to access the functional activity of the inhibition of overexpressed MDR1, MRP1 and BCRP membrane pumps on Caco-2 cells in the presence of Mgf, the fluorescence intensity was measured in a Tecan fluorescence microplate reader (Tecan Ltd, Männedorf, Switzerland) at an excitation wavelength of 485 nm and an emission wavelength of 530 nm. For the purpose, Caco-2 cells in the concentration of 2.5 × 10^5 were incubated with Rh-123 alone and with vinblastine, and Rh-123-loaded Mgf at 37°C to access the inhibitory activity of Mgf on MDR1 transporters. Likewise, to estimate the ability of Mgf to act as a substrate for BCRP transportors, DiOC2 dye was employed. On the similar heels, Caco-2 cells (2.5 × 10^5) were incubated with DiOC2 alone and with vinblastine, and DiOC2-loaded Mgf at 37°C.
(Caco-2 monolayers are a common model of the intestinal barrier.)

The conditions of data set [4]: cited from earlier work. This is another data set of the same source.
Data set [5] is described as follows: Equilibrium solubility studies (shaker, HPTLC). It is filed as physicochemical. The following applies: experimental, at 25°C, mean of three. Here is the method: Equilibrium solubility is the most vital physicochemical property that reflects the bioavailability of a compound. […] The equilibrated samples were centrifuged at 5000 r.p.m. (1398 × g) for 10 min to remove any undissolved drug and the supernatant was analyzed using HPTLC at a λmax of 262 nm. All the media were prepared according to the composition reported by Dressman and co-workers.

Data set [6] in a line: In situ single pass intestinal perfusion studies. It is filed as in vivo, Wistar rats. The following applies: both sexes, Wistar, other: in situ single pass perfusion of the jejunum; experimental, rat jejunum, perfusion rate 0.2 ml/min. Here is the method: The in situ single pass intestinal perfusion studies were performed in a manner reported previously by our group in the past. Three unisex Wistar rats (250–280 g) were fasted for at least 24 h prior to the study, while water was provided ad libitum. The animals were procured from University Centre Animal House, after obtaining the requisite approval from Animals Institutional Committee, Chandigarh (PU/IAEC/S/14/104). Anesthesia was induced by an intraperitoneal injection of thiopental sodium in the dose of 50 mg/kg of the body weight of the rats. After making an incision in the abdomen, provisions for inlet and outlet were made at proximal part of the jejunum, 2–4 cm below the ligament of Trietz and about 10 cm distal to the first incision. […] Finally, 1.5 ml of perfusate was added to the ethereal extract and the concentration of Mgf in the mixture was determined using HPTLC technique at 254 nm by applying the principles of Analytical Quality by Design. The value of effective permeability (Peff) was subsequently calculated using Equation 3 [31].Equation 3 [drawing 4]
where Q is the flow rate, Cin and Cout are the respective inlet and outlet concentrations, r is the radius of the intestine and l is the length of the intestine measured after completion of perfusion.

Data set [7] can be described thus: Partition coefficient (log P), shake-flask octanol/water. It is filed as physicochemical. The following applies: experimental, 25.0 ± 0.1°C. As to the method:
Lipophilicity is a molecular property of any compound that is vital to discern the extent of distribution in the body. The logarithm of octanol/water partition coefficient, in other words, log P, is the most extensively used parameter to quantify lipophilicity. The value of log P is a valuable predictor to determine the passive transport of drugs through the lipoid membranes of the human body. […] For this, first presaturation of the solvents (octanol and water) was conducted for 24 h. Then, Mgf in a concentration of 5 mg/100 ml was added to the equilibrated mixture. After separation of the equilibrated phases by centrifugation at 10,000 r.p.m. for 5 min, the concentration of the solute was determined in the aqueous phase using HPTLC at a λmax 262 nm for each sample:Equation 1 [drawing 2]

Converted amounts (≈) assume the structure as drawn. Like-named read-outs stand apart in the source and are kept apart here.

These results are taken from article PMC5351510 (Future Science OA, 2017).

T1 sequence (P08183 whole entry): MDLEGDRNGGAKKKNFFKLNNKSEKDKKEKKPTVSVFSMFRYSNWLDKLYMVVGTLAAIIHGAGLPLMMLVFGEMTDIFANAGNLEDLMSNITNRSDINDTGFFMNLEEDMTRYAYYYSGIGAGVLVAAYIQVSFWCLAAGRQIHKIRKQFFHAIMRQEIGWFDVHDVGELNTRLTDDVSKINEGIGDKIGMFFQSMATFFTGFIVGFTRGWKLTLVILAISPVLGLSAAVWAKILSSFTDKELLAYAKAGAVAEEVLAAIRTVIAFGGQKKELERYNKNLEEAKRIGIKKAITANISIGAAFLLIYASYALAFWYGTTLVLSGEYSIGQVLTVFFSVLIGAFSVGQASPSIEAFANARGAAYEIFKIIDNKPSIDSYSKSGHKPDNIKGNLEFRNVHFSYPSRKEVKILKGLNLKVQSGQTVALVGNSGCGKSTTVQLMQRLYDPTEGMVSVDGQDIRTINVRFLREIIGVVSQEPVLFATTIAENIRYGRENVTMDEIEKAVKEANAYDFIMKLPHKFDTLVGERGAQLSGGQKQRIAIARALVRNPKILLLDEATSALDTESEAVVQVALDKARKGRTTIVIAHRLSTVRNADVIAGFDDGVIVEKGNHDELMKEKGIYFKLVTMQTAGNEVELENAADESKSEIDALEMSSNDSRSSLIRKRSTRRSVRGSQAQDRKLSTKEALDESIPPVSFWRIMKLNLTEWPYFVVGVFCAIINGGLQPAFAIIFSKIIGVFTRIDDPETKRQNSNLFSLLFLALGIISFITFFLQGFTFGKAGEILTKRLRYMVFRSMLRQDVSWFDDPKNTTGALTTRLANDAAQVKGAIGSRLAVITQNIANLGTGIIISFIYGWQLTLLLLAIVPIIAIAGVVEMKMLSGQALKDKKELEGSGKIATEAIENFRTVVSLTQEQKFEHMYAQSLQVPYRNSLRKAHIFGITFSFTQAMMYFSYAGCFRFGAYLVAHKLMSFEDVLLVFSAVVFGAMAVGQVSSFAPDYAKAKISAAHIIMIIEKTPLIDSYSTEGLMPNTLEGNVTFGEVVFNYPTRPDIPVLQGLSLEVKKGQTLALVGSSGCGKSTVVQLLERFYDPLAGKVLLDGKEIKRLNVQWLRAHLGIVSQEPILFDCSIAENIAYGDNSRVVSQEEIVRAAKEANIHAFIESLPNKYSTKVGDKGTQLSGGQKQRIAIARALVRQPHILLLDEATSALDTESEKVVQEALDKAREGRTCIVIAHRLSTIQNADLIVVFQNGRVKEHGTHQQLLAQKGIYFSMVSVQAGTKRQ

On to `O=c1c2cc(O)c(O)cc2oc2cc(O)c([C@@H]3O[C@H](CO)[C@@H](O)[C@H](O)[C@H]3O)c(O)c12` [mangiferin, (1S)-1,5-Anhydro-1-(1,3,6,7-tetrahydroxy-9-oxo-9H-xanthen-2-yl)-D-glucitol], for which the “AUC0–t rise in streptozotocin-induced diabetic rats compared with normal rats” value in data set [1] (plasma) is given as 2.35 fold. In addition, the “Cmax rise in streptozotocin-induced diabetic rats compared with normal rats” value in data set [1] (plasma) is 2.79 fold. In addition, in data set [1] (rats, oral), the Maximum plasma levels is 715.04 ± 600.14 ng/mL. Also, the “Time of maximum plasma levels after oral intake” value in [1] (rats, oral) is given as 0.72 h. The Aqueous solubility in data set [2] is 0.25 mg/ml at 45 °C. In addition, the logD (commonly the decadic logarithm of the distribution of all forms, ionised or not, between an organic phase and buffer at a given pH) in [3] is -0.79. Also, the P-gp substrate entry in the data set on P-gp and on MDR1 transporters was “Yes” throughout. The log partition coefficient (log P) (commonly the decadic logarithm of the partition coefficient of the neutral form, usually between octanol and water) in data set [4] is listed as -0.09 to -0.36. The solubility (in general, the dissolved amount per volume that the medium holds) at 72 h in [5] (fasted-state simulated gastric fluid, read-out: Solubility in fasted-state simulated gastric fluid) was 140 µg/mL (≈ 331 µM); in data set [5] (fasted-state simulated intestinal fluid, fassif, thermodynamic from solid, read-out: Solubility in fasted-state simulated intestinal fluid), 1480 µg/mL (≈ 3500 µM); in data set [5] (fed-state simulated intestinal fluid, fessif, thermodynamic from solid, read-out: Solubility in fed-state simulated intestinal fluid) it was 3980 µg/mL (≈ 9420 µM); in data set [5] (thermodynamic from solid, water, read-out: Aqueous solubility), 380 µg/mL (≈ 900 µM). Moreover, in [6], the effective permeability (Peff) was determined as 16 ×10⁻⁶ cm/s. Further, the log partition coefficient (logP) – broadly, the decadic logarithm of the partition coefficient of the neutral form, usually between octanol and water – in data set [7] is -0.65.
